The subject of data set [1] is human MDA-MB-231 breast cancer cell xenografts. Description: Dose-response effects on breast tumour growth in nude mice with MDA-MB-231 xenografts (37 days IP). To be noted: for Average tumour volumes / Final tumour weight at day 37: mean ± SEM, n = 5; for tumour suppression (overall statement): all doses (2.5, 10, 40 mg/kg). In kind it is in vivo, mouse (nu/nu Balb/c, female). How it is done: Dose-response effects of compounds CP01 and CP03 on breast tumour growth in nude mice with human MDA-MB-231 breast cancer cell xenografts (subcutaneous injection in mammary fat pad)
5 weeks old when ordered, 6 weeks old when xenografted.
human MDA-MB-231 cells, 4×10^5 cells/100 μL (Matrigel:PBS 1:1)/mouse, subcutaneous injection into the third mammary fat pad.
7 groups, 5 mice in each group. After the cell injection, 7 cages were randomly divided into 7 groups following the average mouse body weight of mice each cage. • Control • CP01-2.5 mg/kg • CP01-10 mg/kg • CP01-40 mg/kg • CP03-2.5 mg/kg • CP03-10 mg/kg • CP03-40 mg/kg
Solid CP01 or CP03 powder was dissolved in DMSO at 40° C. to a final concentration of 400 mg/mL.
(§1) After 4 days of cancer cell xenografting, IP administration of compounds CP01 or CP03 was started (2.5, 10 and 40 mg/kg). Compounds were diluted in corn oil containing 4% DMSO. Injection volume was 50 μL each mouse with a 20-gram body weight. IP injections were administered once a day for six days per week for a total of 37 days in duration. In a further study (see below), different doses of CP01, CP03 and CP05 were administered to nude mice carrying MDA-MB-231 xenografts (FIGS. 11, 12 and 13, respectively). The endpoint in this experiment was tumour volume and the experiments were conducted for 32 days.
(§2) Body weights were recorded six days per week and tumour sizes were measured with a pair of caliper, every three to four days.

Data set [2] in a line: Mouse body weight growth in control and treated groups. The following applies: IP 2.5, 10 and 40 mg/kg, 37 days; for body weight growth of treated mice compared with control group: once a day six days per week. In kind it is in vivo. How it is done:
The weight range at the start of IP treatments was from 13.1 g to 18.1 g at Day 1 and increased to a range of 17.1 g to 21.3 g at Day 37.
as §1, §2

For a further data set, the system named is MDA-MB-231 cells. Put plainly: Matrigel migration assay. In kind it is cell-based, Human. To be noted: 1, 5 and 10 μM, 24 h; P<0.01; FIG. 4. How it is done: Human MDA-MB-231, MDA-MB-468 and T-47D breast cancer cells were obtained from the American Type Culture Collection (ATCC; Manassas, Va., USA). Cells were plated on 96-well microplates at a density of 1×10^4 cells per well for MTT, ATP, Caspase and JC-1 assays. Cells were maintained in Dulbecco's Modified Eagle's Medium (DMEM; Invitrogen, Carlsbad, Calif., USA) supplemented with 10% (w/v) fetal bovine serum (Hyclone, Salt Lake City, Utah, USA), 100 U/mL penicillin, and 100 μg/mL streptomycin (Invitrogen). All of the cells were incubated at 37° C. in a humidified atmosphere of 95% air and 5% CO2. Confluent cells (80-90%) were washed in phosphate-buffered saline, harvested using Trypsin/EDTA, and counted using trypan blue exclusion in a Countess Automated Cell Counter (Invitrogen) before passaging or use in assays.
MDA-MB-231 cells were trypsinized and resuspended in serum-free DMEM media (3.5×10^6 cells/mL). The cell suspension was mixed 1:1 with Matrigel solution (Bio Scientific; Kirrawee, NSW, Australia). Aliquots (20 μL containing 3.5×10^4 cells) were placed into 6-well tissue-culture dishes to form well-defined droplets and incubated at 37° C. for 5 min to enable semi-solidification. Migration media was freshly made as DMEM containing 20% fetal bovine serum, epidermal growth factor 10 pg/mL, hydrocortisone 0.4 ng/mL, vascular endothelial growth factor (VEGF, 1 pg/mL), basic fibroblast growth factor (bFGF, 20 pg/mL), insulin-like growth factor-1 (40 pg/mL), ascorbic acid (2 ng/mL) and heparin (45 ng/mL). Compounds were added in migration media (3 mL/well) and plates were then incubated for 24 h. Cells that migrated out of droplets were scored using phase-contrast microscopy and digital image analysis (Olympus).

We go through five compounds from patent US20170183297A1, “OMEGA-3 ANALOGUES” (The University of Sydney, priority 2014, published 2017).

As for `O=C(O)CCCCCCCCCCCSCCCNC(=O)Nc1ccc(Cl)c(C(F)(F)F)c1` [CP01, 12-{[3-({[4-Chloro-3-(trifluoromethyl)phenyl]carbamoyl}amino)propyl]sulfanyl}dodecanoic acid], the Average tumour volumes is 12.5 ± 1.9 mm^3 in data set [1] (2.5 mg/kg IP, Day 8); 10.5 ± 1^ mm^3 in data set [1] (2.5 mg/kg IP, Day 11); 10 ± 2.9 mm^3 in data set [1] (2.5 mg/kg IP, Day 15); 12.2 ± 3.2 mm^3 in data set [1] (2.5 mg/kg IP, Day 18); 16.9 ± 4.4 mm^3 in data set [1] (2.5 mg/kg IP, Day 21); 23.9 ± 6.1 mm^3 in data set [1] (2.5 mg/kg IP, Day 25). Also, the Average tumour volumes in data set [1] (2.5 mg/kg IP, Day 29) was 29.3 ± 7.4 mm^3; in data set [1] (2.5 mg/kg IP, Day 32), 52.1 ± 15 mm^3; in data set [1] (2.5 mg/kg IP, Day 35), 67.7 ± 17.1 mm^3; in data set [1] (2.5 mg/kg IP, Day 37), 78.7 ± 19.8 mm^3; in data set [1] (10 mg/kg IP, Day 8), 15 ± 2.4 mm^3; in data set [1] (10 mg/kg IP, Day 11), 15.6 ± 1.8 mm^3. The Average tumour volumes was 16.5 ± 2.8 mm^3 in data set [1] (10 mg/kg IP, Day 15); 22 ± 4.5 mm^3 in data set [1] (10 mg/kg IP, Day 18); 26.4 ± 4.5 mm^3 in data set [1] (10 mg/kg IP, Day 21); 33.6 ± 6.2 mm^3 in data set [1] (10 mg/kg IP, Day 25); 45.2 ± 11.2 mm^3 in data set [1] (10 mg/kg IP, Day 29); 67.5 ± 19.3 mm^3 in data set [1] (10 mg/kg IP, Day 32). Moreover, the Average tumour volumes in data set [1] (10 mg/kg IP, Day 35) is reported as 85.7 ± 25.3 mm^3; in data set [1] (10 mg/kg IP, Day 37), 116.5 ± 37.6 mm^3; in data set [1] (40 mg/kg IP, Day 8), 11 ± 1.3 mm^3; in data set [1] (40 mg/kg IP, Day 11), 13.6 ± 2^ mm^3; in data set [1] (40 mg/kg IP, Day 15), 14.7 ± 0.7 mm^3; in data set [1] (40 mg/kg IP, Day 18), 23.6 ± 2.7 mm^3. Also, the Average tumour volumes in data set [1] (40 mg/kg IP, Day 21) is 26.3 ± 6^ mm^3; in data set [1] (40 mg/kg IP, Day 25), 35.9 ± 13.4 mm^3; in data set [1] (40 mg/kg IP, Day 29), 47.8 ± 17^ mm^3; in data set [1] (40 mg/kg IP, Day 32) it was 67.8 ± 26 mm^3; in data set [1] (40 mg/kg IP, Day 35), 116.6 ± 40.7 mm^3; in data set [1] (40 mg/kg IP, Day 37), 132.8 ± 50.9 mm^3. Moreover, the “Final tumour weight at day 37” value in data set [1] (2.5 mg/kg IP) is 0.05 ± 0.01 g; in data set [1] (10 mg/kg IP), 0.08 ± 0.03 g; in data set [1] (40 mg/kg IP), 0.11 ± 0.05 g. In data set [1], the “tumour suppression (overall statement)” value is on record as “strong trends toward tumour suppression at all doses”. Also, the “reduction in tumour size (suppression of tumour growth)” value in data set [1] (dose 2.5 mg/kg) is given as 59%; in data set [1] (dose 10 mg/kg) it was 39%; in data set [1] (dose 40 mg/kg), 30%. The “evidence of toxicity (from body weight)” value in data set [2] is listed as “no evidence of toxicity”. In addition, the “body weight growth of treated mice compared with control group” value in data set [2] is “no significant difference”.
Take `Cc1ccc(NC(=O)NCCCSCCCCCCCCCCCC(=O)O)cc1` [CP02, 12-[(3-{[(4-Methylphenyl)carbamoyl]amino}propyl)sulfanyl]dodecanoic acid]: the “migration of MDA-MB-231 cells out of matrigel droplets” value (shortened to “migration”) in the data set on MDA-MB-231 cells was “all decreases significant”.
Regarding `O=C(O)CSCCCCCCCCCCCCCNC(=O)Nc1ccc(Cl)c(C(F)(F)F)c1` [CP03, {[13-({[4-Chloro-3-(trifluoromethyl)phenyl]carbamoyl}amino)tridecyl]sulfanyl}acetic acid], the Average tumour volumes in data set [1] (2.5 mg/kg IP, Day 8) stood at 8.8 ± 1.4 mm^3; in data set [1] (2.5 mg/kg IP, Day 11), 10.7 ± 1.3 mm^3; in data set [1] (2.5 mg/kg IP, Day 15) it was 14.5 ± 0.9 mm^3; in data set [1] (2.5 mg/kg IP, Day 18), 18 ± 1.6 mm^3; in data set [1] (2.5 mg/kg IP, Day 21) it was 23 ± 2.8 mm^3; in data set [1] (2.5 mg/kg IP, Day 25) it was 29.5 ± 6 mm^3. Further, the Average tumour volumes was 45.4 ± 9.5 mm^3 in data set [1] (2.5 mg/kg IP, Day 29); 60.9 ± 13.7 mm^3 in data set [1] (2.5 mg/kg IP, Day 32); 80.4 ± 21^ mm^3 in data set [1] (2.5 mg/kg IP, Day 35); 106.7 ± 29.4 mm^3 in data set [1] (2.5 mg/kg IP, Day 37); 11.3 ± 2.9 mm^3 in data set [1] (10 mg/kg IP, Day 8); 10.9 ± 1.5 mm^3 in data set [1] (10 mg/kg IP, Day 11). Besides, the Average tumour volumes came to 16.5 ± 2.8 mm^3 in data set [1] (10 mg/kg IP, Day 15); 19.3 ± 2.1 mm^3 in data set [1] (10 mg/kg IP, Day 18); 17.1 ± 2.9 mm^3 in data set [1] (10 mg/kg IP, Day 21); 23.1 ± 5 mm^3 in data set [1] (10 mg/kg IP, Day 25); 29 ± 7.5 mm^3 in data set [1] (10 mg/kg IP, Day 29); 39.3 ± 12.9 mm^3 in data set [1] (10 mg/kg IP, Day 32). Moreover, the Average tumour volumes in data set [1] (10 mg/kg IP, Day 35) is 50.3 ± 21.2 mm^3; in data set [1] (10 mg/kg IP, Day 37) it was 67.3 ± 33.3 mm^3; in data set [1] (40 mg/kg IP, Day 8), 13.4 ± 2.3 mm^3; in data set [1] (40 mg/kg IP, Day 11), 12.5 ± 2^ mm^3; in data set [1] (40 mg/kg IP, Day 15) it was 17.2 ± 1.9 mm^3; in data set [1] (40 mg/kg IP, Day 18) it was 24.4 ± 5.5 mm^3. The Average tumour volumes in data set [1] (40 mg/kg IP, Day 21) is given as 24 ± 5.2 mm^3; in data set [1] (40 mg/kg IP, Day 25), 35.7 ± 10.7 mm^3; in data set [1] (40 mg/kg IP, Day 29) it was 46.3 ± 16.7 mm^3; in data set [1] (40 mg/kg IP, Day 32), 65.7 ± 23^ mm^3; in data set [1] (40 mg/kg IP, Day 35) it was 96.1 ± 33.8 mm^3; in data set [1] (40 mg/kg IP, Day 37), 118.9 ± 44.7 mm^3. Further, the “Final tumour weight at day 37” value in data set [1] (2.5 mg/kg IP) was 0.09 ± 0.03 g; in data set [1] (10 mg/kg IP), 0.06 ± 0.03 g; in data set [1] (40 mg/kg IP), 0.09 ± 0.04 g. Besides, in data set [1], the “tumour suppression (overall statement)” value is “strong trends toward tumour suppression at all doses”. For the same compound, the “reduction in tumour size (suppression of tumour growth)” value in data set [1] (dose 2.5 mg/kg) is recorded as 44%; in data set [1] (dose 10 mg/kg) it was 65%; in data set [1] (dose 40 mg/kg), 38%. Also, the “evidence of toxicity (from body weight)” value in data set [2] was “no evidence of toxicity”. Also, the “body weight growth of treated mice compared with control group” value in data set [2] is “no significant difference”.
`Cc1ccc(NC(=O)NCCCCCCCCCCCCCSCC(=O)O)cc1` [CP04]: the “migration” value in the data set with MDA-MB-231 cells is recorded as “all decreases significant”.
With `Cc1ccc(NC(=O)NCCCSCCCCCCCCCSCC(=O)O)cc1` [CP06, ({9-[(3-{[(4-Methylphenyl)carbamoyl]amino}propyl)sulfanyl]nonyl}sulfanyl)acetic acid], the “migration” value with MDA-MB-231 cells is given as “all decreases significant”.
